In patent US20250099684A1, “HYDROGEN PEROXIDE SOLUTION-PREFILLED SYRINGE WITH EXCELLENT HYDROGEN PEROXIDE PRESERVATION DUE TO SILICONE OIL INCLUDED IN OIL COMPOSITION” (KORTUC Inc., priority 2019, published 2025):
Where two headings read alike, the source gives them in different places.

Settings: sealed, stored at 60° C. for 4 weeks, Oxydol "KENEI" 2.5 to 3.5% (w/v) hydrogen peroxide

residual ratio of hydrogen peroxide (glass container coated with the silicone oil (Dow Corning 360 Medical Fluid, 12,500 cSt)): ≥ 78% | residual ratio of hydrogen peroxide (glass container not coated with the silicone oil): about 70%
SMILES: OO [hydrogen peroxide]
